In the supplement of paper PMC11208160:

experiment: recombinant UMI read abundance after kanamycin selection (control-corrected) (log10(CPM+1)); higher = more efficient recombination; extreme values may be limits of the assay; sequences stand for … in AGTGCAGAGAAAATCGGCCAGTTTTCTCTGCCTGCAGTCCGCATGCCGTGGGACCCCTTGGGTTCTAACCTGTTGCCTAGATTTATGCAGCGGACTGCCTTTCTCCCAAAGTGATAAACCGG…AGGTTGGTTTCACT; site = the 11-nt donor
How it was run: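 In Escherichia coli, a pool of donor and donor-binding-loop pairs, each with a 12-nt UMI, was tested for the IS621 bridge recombinase. Plating was on IPTG (0.07 mM) plus kanamycin, or without selection, in two replicates. Recombinant UMIs were amplified by PCR across the donor–target junction and sequenced, and counts were reported as log10(CPM+1) after averaging and control-derived scaling.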
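Also: IS621 bridge recombinase in Escherichia coli cells against a fixed T5 target plasmid.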

Sequence	recombinant UMI read abundance (log10)
CTGGAAACATGGACCGGTTTTCCCGGTAATCCGTATTTGCA (site CTGGAAACTTT)	2.16
GGTTGGACATGGACCGGTTTTCCCGGTAATCCGTATTTGAC (site GCTTGGACTGT)	0
TAAGCGCCATGGACCGGTTTTCCCGGTAATCCGTATTTGTG (site TAAGCGCCTCA)	0.248
CAGCCTTCATGGACCGGTTTTCCCGGTAATCCGTATTTGGT (site GAGCCTTCTAC)	0.00376
AAGCCGGCATGGACCGGTTTTCCCGGTAATCCGTATTTGGC (site AAGCCGGCTGC)	0
CTAATATCATGGACCGGTTTTCCCGGTAATCCGTATTTGTC (site CTAGTATCTGT)	1.1
GGACACCCATGGACCGGTTTTCCCGGTAATCCGTATTTGTT (site GGACACCCTAA)	0.444
CGCAATGCATGGACCGGTTTTCCCGGTAATCCGTATTTGTT (site CGGAATCCTAA)	0
TGTTCCGCATGGACCGGTTTTCCCGGTAATCCGTATTTGGC (site TGTTCCGCTGC)	0.484
CGTGGAACATGGACCGGTTTTCCCGGTAATCCGTATTTGTT (site AGTGGAACTAA)	0.101
CGCCGTACATGGACCGGTTTTCCCGGTAATCCGTATTTGAT (site CGCCGTACTAA)	0.00486
CTTCTCGCATGGACCGGTTTTCCCGGTAATCCGTATTTGTA (site CTTCTCACTTA)	0.459
AGGACGACATGGACCGGTTTTCCCGGTAATCCGTATTTGCA (site AGGAAGACTTG)	0.601
CGTGGAACATGGACCGGTTTTCCCGGTAATCCGTATTTGTT (site CGTGCAACTAA)	0.00967
GGAGTGGCATGGACCGGTTTTCCCGGTAATCCGTATTTGCT (site GGAGTGGCTAG)	2.36
CGATCTCCATGGACCGGTTTTCCCGGTAATCCGTATTTGCT (site CGATCTCCTAG)	0
CTCTTCACATGGACCGGTTTTCCCGGTAATCCGTATTTGCT (site CTCTACACTAG)	1.29
CTGACTCCATGGACCGGTTTTCCCGGTAATCCGTATTTGTT (site CGGAATCCTAA)	0.00356
CAAGGCTCATGGACCGGTTTTCCCGGTAATCCGTATTTGAA (site CAAAGCTCTTT)	2.15
ACCATATCATGGACCGGTTTTCCCGGTAATCCGTATTTGCA (site ACAGTATCTTG)	0.937
CCGCGGGCATGGACCGGTTTTCCCGGTAATCCGTATTTGCC (site CCGCGGGCTGG)	1.43
TGCATCCCATGGACCGGTTTTCCCGGTAATCCGTATTTGAC (site TGCATCCCTGT)	0.448
ACAGGTGCATGGACCGGTTTTCCCGGTAATCCGTATTTGAT (site CCAGGTGCTAT)	2.2
CGAACGTCATGGACCGGTTTTCCCGGTAATCCGTATTTGCG (site CGAACGTCTCG)	2.37
AGATATACATGGACCGGTTTTCCCGGTAATCCGTATTTGTT (site AGATATACTAA)	1.74

Sequence	recombinant UMI read abundance (log10)
CGAGGGCCATGGACCGGTTTTCCCGGTAATCCGTATTTGGG (site CGAGGGCCTCC)	0.0164
CCGTAGCCATGGACCGGTTTTCCCGGTAATCCGTATTTGCC (site CCTTAGCCTGG)	0
ACCCATCCATGGACCGGTTTTCCCGGTAATCCGTATTTGAC (site ACGCATCCTGT)	0
GTAGTTCCATGGACCGGTTTTCCCGGTAATCCGTATTTGGT (site GTAGTTCCTAC)	0.849
ACATAGACATGGACCGGTTTTCCCGGTAATCCGTATTTGGG (site ACCTAGACTCC)	0.0175
CCGTTTTCATGGACCGGTTTTCCCGGTAATCCGTATTTGCT (site CCGTTTTCTAG)	0
CAATGCTCATGGACCGGTTTTCCCGGTAATCCGTATTTGAC (site CAATGCTCTTT)	1.28
CGATGATCATGGACCGGTTTTCCCGGTAATCCGTATTTGCT (site CGATCATCTAG)	0.00821
CTAGTATCATGGACCGGTTTTCCCGGTAATCCGTATTTGAC (site CTCGTAACTGT)	0
CCCGGACCATGGACCGGTTTTCCCGGTAATCCGTATTTGCA (site CCCGGCCCTTG)	0
GATACTGCATGGACCGGTTTTCCCGGTAATCCGTATTTGCA (site GATACTGCTTG)	1.61
CACGGCCCATGGACCGGTTTTCCCGGTAATCCGTATTTGTT (site CAAGGCCCTAA)	0.0138
ACAATAACATGGACCGGTTTTCCCGGTAATCCGTATTTGCA (site ACAATAACTTG)	2.65
ATCTATGCATGGACCGGTTTTCCCGGTAATCCGTATTTGAC (site ATCTATCCTGT)	0
CTAGTATCATGGACCGGTTTTCCCGGTAATCCGTATTTGAC (site CTATTGTCTGT)	0
CTTGTAGCATGGACCGGTTTTCCCGGTAATCCGTATTTGTC (site CTTGTAGCTGA)	0.797
CGCTTGGCATGGACCGGTTTTCCCGGTAATCCGTATTTGGA (site CTCTTGGCTTC)	0.00767
GGAGTGACATGGACCGGTTTTCCCGGTAATCCGTATTTGGT (site GGAGTGTCTAC)	0.92
TGTTCGCCATGGACCGGTTTTCCCGGTAATCCGTATTTGTA (site TGTTCCCCTTA)	0.0392
AGGAAGGCATGGACCGGTTTTCCCGGTAATCCGTATTTGGA (site AGGAAGGCTTC)	1.73
CATCTTGCATGGACCGGTTTTCCCGGTAATCCGTATTTGCG (site CATCTTGCTCG)	0.00609
ATCCAAGCATGGACCGGTTTTCCCGGTAATCCGTATTTGAG (site ACCCAAGCTCT)	0.646
CCAGCGCCATGGACCGGTTTTCCCGGTAATCCGTATTTGTG (site CCAGCGCCTCA)	0.045
TCACTAACATGGACCGGTTTTCCCGGTAATCCGTATTTGGA (site TCACTAACTTC)	0.957
GTTGTTCCATGGACCGGTTTTCCCGGTAATCCGTATTTGGT (site GTTGCTCCTAC)	0.00968

Sequence	recombinant UMI read abundance (log10)
TCCTCCACATGGACCGGTTTTCCCGGTAATCCGTATTTGGT (site TCCTCCACTAC)	0.0263
CTAGTATCATGGACCGGTTTTCCCGGTAATCCGTATTTGAC (site TTAGAATCTGT)	0
ACGTGTACATGGACCGGTTTTCCCGGTAATCCGTATTTGTT (site ACGTGTACTAA)	1.47
GCGAAGCCATGGACCGGTTTTCCCGGTAATCCGTATTTGGG (site GCGACGCCTCC)	0.00657
TGTGCAGCATGGACCGGTTTTCCCGGTAATCCGTATTTGGT (site TGTGCAGCTAC)	0.0104
TAGAATACATGGACCGGTTTTCCCGGTAATCCGTATTTGCG (site TAGAATACTTG)	0.239
GGATTGACATGGACCGGTTTTCCCGGTAATCCGTATTTGCC (site GGATTGACTGG)	1.98
CGGGAACCATGGACCGGTTTTCCCGGTAATCCGTATTTGAT (site CGGGAACCTAC)	0.0116
CAGGCGCCATGGACCGGTTTTCCCGGTAATCCGTATTTGTG (site CACGCGCCTCA)	0
TTTGCGGCATGGACCGGTTTTCCCGGTAATCCGTATTTGAT (site TTTGCGGCTAG)	0
TTACGTCCATGGACCGGTTTTCCCGGTAATCCGTATTTGGT (site TTACGTCCTAC)	0.02
AGCCTTGCATGGACCGGTTTTCCCGGTAATCCGTATTTGTT (site AGCCTCGCTAA)	0.0115
ACCATATCATGGACCGGTTTTCCCGGTAATCCGTATTTGCA (site ACCATATCTTG)	2.3
CGCGGACCATGGACCGGTTTTCCCGGTAATCCGTATTTGGG (site CGTGGACCTCC)	0.0246
GCGAAGCCATGGACCGGTTTTCCCGGTAATCCGTATTTGGG (site GCGAAGCCTCA)	0.00806
CAATCAGCATGGACCGGTTTTCCCGGTAATCCGTATTTGCT (site CAACCAGCTAG)	0.798
ACACGAACATGGACCGGTTTTCCCGGTAATCCGTATTTGTT (site ACACGAACTTA)	1.35
CGCTAGCCATGGACCGGTTTTCCCGGTAATCCGTATTTGCC (site CCCTAGCCTGG)	0
GGCTAGGCATGGACCGGTTTTCCCGGTAATCCGTATTTGGT (site GGCTAGGCTAC)	0.271
GTATCTACATGGACCGGTTTTCCCGGTAATCCGTATTTGCT (site GTATCTACTAG)	1.66
ACGCACGCATGGACCGGTTTTCCCGGTAATCCGTATTTGGG (site ACGCACGCTCC)	0.00911
GCAATTTCATGGACCGGTTTTCCCGGTAATCCGTATTTGTA (site GCAATTTCTTA)	2.26
GAGCTCACATGGACCGGTTTTCCCGGTAATCCGTATTTGAT (site GAGCTCACTCT)	0.206
AATATAGCATGGACCGGTTTTCCCGGTAATCCGTATTTGCC (site AATATAGCTGG)	1.53
GAATGGCCATGGACCGGTTTTCCCGGTAATCCGTATTTGCC (site GAATGGCCTAG)	0
